Laboratory results taken from publication PMC2873968, “Novel protein kinase D inhibitors cause potent arrest in prostate cancer cell growth and motility” (BMC Chemical Biology, 2010).

Assays:
JNK2 = JNK2 (Homo sapiens, UniProt P45984); test: Kinase profiling, single-dose in vitro kinase assay (Caliper Life Sciences); conditions: read-out: Average % Inhibition JNK2
PKG1β = PKG1β (Homo sapiens, UniProt Q13976); test: as above; conditions: read-out: Average % Inhibition PKG1β
MARK1 = MARK1 (Homo sapiens, UniProt Q9P0L2); test: as above; conditions: read-out: Average % Inhibition MARK1
ErbB4 = ErbB4 (Homo sapiens, UniProt Q15303); test: as above; conditions: read-out: Average % Inhibition ErbB4
AurA = AurA (Homo sapiens, UniProt O14965); test: as above; conditions: read-out: Average % Inhibition AurA
SYK = SYK (Homo sapiens, UniProt P43405); test: as above; conditions: read-out: Average % Inhibition SYK
PLK1 = system: PLK1; parameters: method as in PMID 18829454; conditions: previously reported; cited from earlier work
ABL = ABL (Homo sapiens, UniProt P00519); test: Kinase profiling, single-dose in vitro kinase assay (Caliper Life Sciences); conditions: read-out: Average % Inhibition ABL
Sequence of ABL (P00519 whole entry): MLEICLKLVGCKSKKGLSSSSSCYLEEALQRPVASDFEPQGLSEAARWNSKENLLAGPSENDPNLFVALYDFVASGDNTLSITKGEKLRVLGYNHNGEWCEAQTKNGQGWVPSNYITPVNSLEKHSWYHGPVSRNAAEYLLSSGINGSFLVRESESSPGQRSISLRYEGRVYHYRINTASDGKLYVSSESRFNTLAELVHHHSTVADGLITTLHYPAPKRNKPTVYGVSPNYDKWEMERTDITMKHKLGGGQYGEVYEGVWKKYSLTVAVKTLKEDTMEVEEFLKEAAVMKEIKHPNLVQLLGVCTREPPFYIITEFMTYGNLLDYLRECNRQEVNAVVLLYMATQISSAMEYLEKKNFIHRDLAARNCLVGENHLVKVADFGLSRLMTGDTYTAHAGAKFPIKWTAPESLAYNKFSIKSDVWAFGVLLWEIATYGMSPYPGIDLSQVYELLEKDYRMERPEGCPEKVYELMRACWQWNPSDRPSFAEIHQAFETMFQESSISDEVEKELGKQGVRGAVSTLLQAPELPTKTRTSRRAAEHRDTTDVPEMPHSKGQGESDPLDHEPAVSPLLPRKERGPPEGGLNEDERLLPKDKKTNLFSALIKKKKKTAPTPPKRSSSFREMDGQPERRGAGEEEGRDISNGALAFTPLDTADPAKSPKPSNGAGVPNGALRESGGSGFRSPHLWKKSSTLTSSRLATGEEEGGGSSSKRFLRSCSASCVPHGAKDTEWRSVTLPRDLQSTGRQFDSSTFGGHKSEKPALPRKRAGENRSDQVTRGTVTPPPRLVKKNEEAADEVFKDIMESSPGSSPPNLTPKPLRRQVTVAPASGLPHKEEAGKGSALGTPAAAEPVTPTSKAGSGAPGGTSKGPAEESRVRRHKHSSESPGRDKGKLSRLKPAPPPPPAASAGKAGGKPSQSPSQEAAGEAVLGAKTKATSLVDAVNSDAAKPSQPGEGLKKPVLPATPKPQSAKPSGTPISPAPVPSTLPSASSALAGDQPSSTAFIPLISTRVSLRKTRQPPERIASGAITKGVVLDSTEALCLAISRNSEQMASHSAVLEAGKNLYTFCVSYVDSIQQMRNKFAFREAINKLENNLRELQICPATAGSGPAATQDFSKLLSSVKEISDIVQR

PDGFRα = PDGFRα (Homo sapiens, UniProt P16234); test: as above; conditions: read-out: Average % Inhibition PDGFRα
Sequence of PDGFRα (P16234 24-1089): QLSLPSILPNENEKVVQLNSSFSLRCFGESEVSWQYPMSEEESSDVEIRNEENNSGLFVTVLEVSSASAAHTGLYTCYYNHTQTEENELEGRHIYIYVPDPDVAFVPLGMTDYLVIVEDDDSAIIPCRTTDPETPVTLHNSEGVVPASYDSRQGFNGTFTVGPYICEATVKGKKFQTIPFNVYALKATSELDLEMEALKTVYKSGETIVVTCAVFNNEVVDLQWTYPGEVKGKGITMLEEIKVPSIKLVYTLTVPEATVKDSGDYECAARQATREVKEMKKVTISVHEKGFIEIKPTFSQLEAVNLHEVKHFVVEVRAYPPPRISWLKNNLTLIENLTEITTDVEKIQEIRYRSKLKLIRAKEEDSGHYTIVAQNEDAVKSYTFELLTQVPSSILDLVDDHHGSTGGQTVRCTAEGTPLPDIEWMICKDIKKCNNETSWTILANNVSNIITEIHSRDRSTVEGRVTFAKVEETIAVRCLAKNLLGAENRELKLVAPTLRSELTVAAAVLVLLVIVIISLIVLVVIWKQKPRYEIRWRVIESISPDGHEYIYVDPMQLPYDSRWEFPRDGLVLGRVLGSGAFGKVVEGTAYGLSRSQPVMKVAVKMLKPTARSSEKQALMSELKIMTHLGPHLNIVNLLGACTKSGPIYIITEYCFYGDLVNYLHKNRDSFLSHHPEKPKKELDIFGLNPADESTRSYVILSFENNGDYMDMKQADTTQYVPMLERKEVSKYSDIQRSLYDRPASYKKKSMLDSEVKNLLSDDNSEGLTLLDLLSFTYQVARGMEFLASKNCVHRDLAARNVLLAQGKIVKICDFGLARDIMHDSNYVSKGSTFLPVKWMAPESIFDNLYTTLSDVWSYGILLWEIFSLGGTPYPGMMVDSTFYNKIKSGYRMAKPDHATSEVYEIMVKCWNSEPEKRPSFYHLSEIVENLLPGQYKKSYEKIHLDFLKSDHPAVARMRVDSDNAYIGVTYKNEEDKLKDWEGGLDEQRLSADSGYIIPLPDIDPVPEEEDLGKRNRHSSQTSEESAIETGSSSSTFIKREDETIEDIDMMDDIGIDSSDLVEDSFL

MSK1 = MSK1 (Homo sapiens, UniProt O75582); test: as above; conditions: read-out: Average % Inhibition MSK1
PAK2 = PAK2 (Homo sapiens, UniProt Q13177); test: as above; conditions: read-out: Average % Inhibition PAK2
AKT1 = AKT1 (Homo sapiens, UniProt P31749); test: as above; conditions: read-out: Average % Inhibition AKT1
CHK2 = CHK2 (Homo sapiens, UniProt O96017); test: as above; conditions: read-out: Average % Inhibition CHK2
Sequence of CHK2 (O96017 whole entry): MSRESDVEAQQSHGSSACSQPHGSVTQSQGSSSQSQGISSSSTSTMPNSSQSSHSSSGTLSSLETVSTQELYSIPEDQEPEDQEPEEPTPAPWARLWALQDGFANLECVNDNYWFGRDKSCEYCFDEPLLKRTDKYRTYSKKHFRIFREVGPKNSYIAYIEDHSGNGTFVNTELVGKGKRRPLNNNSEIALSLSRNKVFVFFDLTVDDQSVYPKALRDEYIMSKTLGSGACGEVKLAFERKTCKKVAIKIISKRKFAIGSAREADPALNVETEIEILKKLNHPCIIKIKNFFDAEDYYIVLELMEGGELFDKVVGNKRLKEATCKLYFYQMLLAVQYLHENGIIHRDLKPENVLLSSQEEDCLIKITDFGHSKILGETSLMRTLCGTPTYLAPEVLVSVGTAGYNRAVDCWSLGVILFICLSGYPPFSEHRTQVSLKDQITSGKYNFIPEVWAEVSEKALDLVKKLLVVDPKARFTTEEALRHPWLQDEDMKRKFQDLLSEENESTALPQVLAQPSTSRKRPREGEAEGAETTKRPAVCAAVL

PIM2 = PIM2 (Homo sapiens, UniProt Q9P1W9); test: as above; conditions: read-out: Average % Inhibition PIM2
AMPK = test: as above; conditions: 10 μM
PKCα = target: T1, PKCα (Homo sapiens, UniProt P17252); parameters: method as in PMID 18829454; conditions: previously reported; cited from earlier work
T1 construct: purchased Cell Signaling Technology and Calbiochem

IRAK4 = IRAK4 (Homo sapiens, UniProt Q9NWZ3); test: Kinase profiling, single-dose in vitro kinase assay (Caliper Life Sciences); conditions: read-out: Average % Inhibition IRAK4
Ikkb = Ikkb (Homo sapiens, UniProt O14920); test: as above; conditions: read-out: Average % Inhibition Ikkb
EGFR = EGFR (Homo sapiens, UniProt P00533); test: as above; conditions: read-out: Average % Inhibition EGFR
Sequence of EGFR (P00533 25-1210): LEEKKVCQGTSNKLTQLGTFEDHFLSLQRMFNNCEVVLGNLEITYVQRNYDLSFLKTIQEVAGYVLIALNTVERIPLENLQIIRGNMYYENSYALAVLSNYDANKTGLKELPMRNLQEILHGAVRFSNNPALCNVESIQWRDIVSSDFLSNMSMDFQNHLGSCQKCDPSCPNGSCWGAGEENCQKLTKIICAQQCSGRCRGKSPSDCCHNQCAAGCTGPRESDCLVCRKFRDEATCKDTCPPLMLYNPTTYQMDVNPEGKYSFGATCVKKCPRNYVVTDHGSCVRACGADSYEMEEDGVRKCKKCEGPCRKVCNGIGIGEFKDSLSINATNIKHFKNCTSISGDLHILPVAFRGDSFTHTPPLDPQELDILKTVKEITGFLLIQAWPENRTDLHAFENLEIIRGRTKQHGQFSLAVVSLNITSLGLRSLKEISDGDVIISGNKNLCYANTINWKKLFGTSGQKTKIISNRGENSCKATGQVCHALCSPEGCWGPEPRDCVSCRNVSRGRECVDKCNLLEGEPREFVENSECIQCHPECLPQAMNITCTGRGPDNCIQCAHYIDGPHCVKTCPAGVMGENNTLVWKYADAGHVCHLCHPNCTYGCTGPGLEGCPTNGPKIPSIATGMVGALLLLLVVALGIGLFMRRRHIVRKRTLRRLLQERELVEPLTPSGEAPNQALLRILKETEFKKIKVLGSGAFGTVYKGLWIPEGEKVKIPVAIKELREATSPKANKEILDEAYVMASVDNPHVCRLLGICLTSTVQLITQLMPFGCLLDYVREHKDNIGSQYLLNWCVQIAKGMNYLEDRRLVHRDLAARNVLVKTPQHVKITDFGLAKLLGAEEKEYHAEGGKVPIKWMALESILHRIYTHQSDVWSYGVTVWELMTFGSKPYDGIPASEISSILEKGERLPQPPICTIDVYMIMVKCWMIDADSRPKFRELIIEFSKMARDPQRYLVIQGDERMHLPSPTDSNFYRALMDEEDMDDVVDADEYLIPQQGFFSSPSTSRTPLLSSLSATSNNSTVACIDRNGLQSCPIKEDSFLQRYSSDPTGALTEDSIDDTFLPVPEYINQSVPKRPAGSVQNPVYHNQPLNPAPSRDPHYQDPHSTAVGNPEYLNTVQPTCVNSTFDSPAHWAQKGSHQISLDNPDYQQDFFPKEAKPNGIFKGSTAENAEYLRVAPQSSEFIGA

KDR = KDR (Homo sapiens, UniProt P35968); test: as above; conditions: read-out: Average % Inhibition KDR
Erk1 = Erk1 (Homo sapiens, UniProt P27361); test: as above; conditions: read-out: Average % Inhibition Erk1, 10 μM
PKCδ = target: T2, PKCδ (Homo sapiens, UniProt Q05655); test: In vitro radiometric PKC kinase assay; type: biochemical
T2 construct: purchased Enzo Life Sciences
T2 sequence (Q05655 whole entry): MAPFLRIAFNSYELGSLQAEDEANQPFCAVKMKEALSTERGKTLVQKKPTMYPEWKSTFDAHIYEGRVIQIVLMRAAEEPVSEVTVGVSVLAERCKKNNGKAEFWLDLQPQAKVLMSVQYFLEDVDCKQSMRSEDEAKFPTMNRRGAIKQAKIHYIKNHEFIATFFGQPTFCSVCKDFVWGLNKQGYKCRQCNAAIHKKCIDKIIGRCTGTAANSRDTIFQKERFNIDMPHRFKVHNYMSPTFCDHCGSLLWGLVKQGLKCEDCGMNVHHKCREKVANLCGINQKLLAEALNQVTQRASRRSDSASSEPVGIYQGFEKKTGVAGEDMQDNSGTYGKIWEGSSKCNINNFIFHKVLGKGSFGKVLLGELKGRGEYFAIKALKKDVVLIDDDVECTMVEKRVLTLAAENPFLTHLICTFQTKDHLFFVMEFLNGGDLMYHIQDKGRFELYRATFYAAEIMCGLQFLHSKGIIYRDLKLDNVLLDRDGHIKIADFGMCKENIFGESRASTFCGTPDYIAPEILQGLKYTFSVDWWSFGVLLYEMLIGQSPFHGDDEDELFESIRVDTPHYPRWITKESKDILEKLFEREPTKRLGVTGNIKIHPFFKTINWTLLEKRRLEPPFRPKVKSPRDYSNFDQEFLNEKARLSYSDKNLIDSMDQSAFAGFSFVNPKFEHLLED
Method: The PKC in vitro kinase assays were performed as described previously.
(§1) To determine whether the novel analogs retained this specificity, we tested the compounds against their ability to inhibit PKCα, -βI, -δ, and CAMKIIα in in vitro radiometric kinase activity assays.
Inhibition of PKCα (A), PKCβI (B), PKCδ (C), or CAMKIIα (D) by each of the 5 analogs was determined at 100 nM, 1 μM, and 10 μM concentrations. […] Data are the mean ± S.E.M. of three independent experiments. Statistical significance was determined using the unpaired t-test. ns, not statistically significant; *, p < 0.05; **, p < 0.01; ***, p < 0.001.

CAMKIIα = target: T3, CAMKIIα (Homo sapiens, UniProt Q9UQM7); test: In vitro radiometric CAMK kinase assay; type: biochemical
T3 construct: purchased Enzo Life Sciences
Method: In vitro radiometric kinase assays were conducted as previously described. Briefly, 1 μCi [γ-^32P] ATP (PerkinElmer Life Sciences), 70 μM ATP, 50 ng purified recombinant human PKD1 (Biomol International, Plymouth Meeting, PA), PKD2 (SignalChem, Richmond, BC, Canada), or CAMKIIα (Enzo Life Sciences) or 75 ng PKD3 (Enzo Life Sciences), and 2.5 μg syntide-2 (Sigma) in 50 μl kinase buffer containing 50 mM Tris-HCl, pH 7.5, 4 mM MgCl2, and 10 mM β-mercaptoethanol. For the CAMK assay, 0.5 mM CaCl2 and 30 ng/μl calmodulin were pre-incubated for 10 min on ice, and then added to each reaction mixture. The reaction was incubated at 30°C for 10 min, and 25 μl of the reaction mixture was then spotted onto Whatman P81 filter paper (Whatman Inc., Clifton, NJ). The filter papers were washed 3 times in 0.5% phosphoric acid, air-dried, and counted using a Beckman LS6500 multipurpose scintillation counter (Beckman).
as §1
Inhibition of PKCα (A), PKCβI (B), PKCδ (C), or CAMKIIα (D) by each of the 5 analogs was determined at 100 nM, 1 μM, and 10 μM concentrations. […] Statistical significance was determined using the unpaired t-test. ns, not statistically significant; *, p < 0.05; **, p < 0.01; ***, p < 0.001.

Sequence of JNK2 (P45984 whole entry): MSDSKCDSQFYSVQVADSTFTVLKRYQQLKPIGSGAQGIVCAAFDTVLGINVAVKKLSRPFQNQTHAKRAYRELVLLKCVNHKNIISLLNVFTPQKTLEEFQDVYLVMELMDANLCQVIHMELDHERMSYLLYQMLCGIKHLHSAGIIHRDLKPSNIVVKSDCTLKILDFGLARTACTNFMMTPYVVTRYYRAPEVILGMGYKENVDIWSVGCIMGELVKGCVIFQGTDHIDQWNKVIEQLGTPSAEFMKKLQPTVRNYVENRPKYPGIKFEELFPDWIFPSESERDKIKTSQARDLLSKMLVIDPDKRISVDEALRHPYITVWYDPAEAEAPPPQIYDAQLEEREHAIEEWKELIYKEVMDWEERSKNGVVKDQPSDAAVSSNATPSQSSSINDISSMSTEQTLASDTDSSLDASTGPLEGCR

## O=C1NCCCc2c1oc1ccc(O)cc21 [CID755673, 7-Hydroxy-2,3,4,5-tetrahydro-[1]benzoxolo[2,3-c]azepin-1-one]
JNK2
  inhibition at 10 µM: 36%
PKG1β
  inhibition at 10 µM: 11%
MARK1
  inhibition at 10 µM: 12%
ErbB4
  inhibition at 10 µM: 1%
AurA
  inhibition at 10 µM: 7%
SYK
  inhibition at 10 µM: -8%
PLK1
  inhibition of PLK1: did not inhibit
ABL
  inhibition at 10 µM: 8%
PDGFRα
  inhibition at 10 µM: 5%
MSK1
  inhibition at 10 µM: 7%
PAK2
  inhibition at 10 µM: 3%
AKT1
  inhibition at 10 µM: 3%
CHK2
  inhibition at 10 µM: 4%
PIM2
  inhibition at 10 µM: 6%
AMPK
  Average % Inhibition AMPK: 35%
PKCα
  inhibition of PKCα: did not inhibit
IRAK4
  inhibition at 10 µM: 0%
Ikkb
  inhibition at 10 µM: 49%
EGFR
  inhibition at 10 µM: 11%
KDR
  inhibition at 10 µM: 8%
Erk1
  inhibition at 10 µM: ≥ 50%

## O=C1NCCSc2c1sc1ccc(O)c(I)c21 [kb-NB165-31]
PKCδ
  inhibition of PKCδ (in words): significant inhibitory activity
PKCδ; 10 μM, read-out: inhibitory activity toward PKCδ
  inhibition at 10 µM: ~50%
CAMKIIα
  inhibition of CAMKIIα (in words): significant inhibitory activity
CAMKIIα; 10 μM
  inhibition at 10 µM: ~70%
